Laboratory results published in US10597366B2, “Aryl ethers and uses thereof” (Peloton Therapeutics, Inc., priority 2013, dated 2020).

Assays:
[1] = test system: 786-O-Hif-Luc cells (luciferase gene driven by multiple HIF responsive elements); assay: Luciferase Assay; type: cell-based; conditions: 24 h, 786-O-Hif-Luc cells, about 24 hours; read-out: Mean Luciferease EC50
Method: A pool of infected cells were then selected against 2 μg/mL of puromycin (P8833, Sigma) for 10 days followed by limited dilution to select single clones.
Each concentration was tested in triplicate. After about 24 hours, luciferase activity was determined using ONE-Glo Luciferase Assay Reagent (E6110, Promega) following the manufacturer's recommended procedure. EC50 were calculated by using Dotmatics software.

[2] = test system: EPO and PGK1 mRNA in mouse kidney; assay: In vivo PK/PD study: mouse kidney mRNA levels by qRT-PCR; set-up: species or system SCID/Biege mice; conditions: oral gavage three times at 12 hour intervals; 10, 30 or 100 mg/kg
Method: About 5×10^6 renal cell carcinoma 786-O tumor cells (ATCC® CRL-1932, VHL and HIF-1α null cell line) in PBS and Matrigel (1:1 in volume) were injected subcutaneously at the right flanks of SCID/Biege mice at 6-7 weeks of age for xenograft development. When the xenografts reached about 450 mm^3 in size, the tumor bearing mice were randomly divided into 4 groups (n=4). Plasma was collected prior to treatment by retro-orbital bleeding. […] All animals were sacrificed at 12 hours post last dose. Tumor, kidney, and plasma were collected from each animal. Total RNA was extracted from the tumors and kidneys. The mRNA levels of HIF-1α, HIF-2α and their respective target genes were determined by qRT-PCR (FIG. 1).

[3] = test system: renal cell carcinoma 786-O xenograft; assay: In vivo efficacy study, 786-O xenograft; set-up: species or system SCID/Biege mice; conditions: all treatment groups; t-Test; Compound 15 20 days, Compound 163 28 days
human VEGFA = assay: Plasma human VEGFA level of 786-O xenograft bearing mice; type: in vivo; conditions: 10, 30 and 100 mg/kg, three times at 12 hour intervals, prior to vs 12 h post treatment, FIG. 5
[4] = test system: VEGFA concentration in medium of 786-O cells; assay: VEGF ELISA Assay; type: cell-based; conditions: Homo sapiens, 786-0, 786-O cells; read-out: Mean VEGF ELISA EC50
Method: Each concentration had duplicated wells. About 20 hours later, medium was removed by suction and each well was supplied with 180 μL of growth medium. About 20 μl freshly-made 10× compound stocks were added to each well. […] The EC50 was calculated by GraphPad Prism using the dose-response-inhibition (four parameter) equation. The cell seeded plate was then subjected to CellTiter-Glo luminescence cell viability assay (Promega) by adding 50 μL of Celltiter Glo reagent into each well and shaking the plate for 8 minutes at 550 rpm (Thermomixer R, Eppendorf) then read luminescence signal in plate reader (3 second delay, 0.5 second/well integration time, Synergy 2 multi Detection Microplate reader) immediately.

| EC50 [1] | EC50 [4] | Structure (SMILES) | Mouse kidney EPO mRNA level (HIF-2α specifically regulated gene) [2] | Mouse kidney PGK1 mRNA level (HIF-1α targeted gene) [2] | Tumor size versus vehicle [3] | plasma level of human VEGFA (human VEGFA) |
| --- | --- | --- | --- | --- | --- | --- |
| 0.007 µM | – | N#Cc1cc(F)cc(Oc2ccc(S(=O)(=O)C(F)F)c3c2CC(F)(F)[C@H]3O)c1 [Compound 15, 3-[(1S)-7-(difluoromethylsulfonyl)-2,2-difluoro-1-hydroxy-indan-4-yl]oxy-5-fluoro-benzonitrile] | reduced | remained unchanged | statistically significant reduction | reduced |
| 0.31 µM | 0.63 µM | N#Cc1cc(F)cc(Oc2ccc(S(=O)(=O)C(F)F)c(CO)c2Br)c1 [Compound 80, 3-(2-Bromo-4-((difluoromethyl)sulfonyl)-3-(hydroxymethyl)phenoxy)-5-fluorobenzonitrile] | – | – | – | – |
| 0.046 µM | 0.047 µM | O=S(=O)(c1ccc(Oc2ccc(F)c(F)c2)c2c1[C@H](O)C(F)(F)C2)C(F)F [Compound 196, (S)-7-((Difluoromethyl)sulfonyl)-4-(3,4-difluorophenoxy)-2,2-difluoro-2,3-dihydro-1H-inden-1-ol] | – | – | – | – |
| 0.004 µM | 0.011 µM | CS(=O)(=O)c1ccc(Oc2cc(F)cc(F)c2)c2c1[C@H](O)C(F)(F)C2 [Compound 161, (S)-4-(3,5-Difluorophenoxy)-2,2-difluoro-7-(methylsulfonyl)-2,3-dihydro-1H-inden-1-ol] | – | – | – | – |
| 3.3 µM | 1.58 µM | N#Cc1c(S(=O)(=O)C(F)(F)F)ccc(Oc2cc(F)cc(Cl)c2)c1Br [Compound 98, 2-Bromo-3-(3-chloro-5-fluorophenoxy)-6-((trifluoromethyl)sulfonyl)benzonitrile] | – | – | – | – |
| 0.066 µM | 0.04 µM | O=S(=O)(CF)c1ccc(Oc2cc(F)cc(F)c2)c2c1[C@H](O)CC2 [Compound 60, (R)-4-(3,5-Difluorophenoxy)-7-((fluoromethyl)sulfonyl)-2,3-dihydro-1H-inden-1-ol] | – | – | – | – |
| 0.11 µM | 0.14 µM | O=S(=O)(c1ccc(Oc2cc(F)c[n+]([O-])c2)c2c1[C@H](O)C(F)(F)C2)C(F)(F)F [Compound 310, (S)-3-((2,2-difluoro-1-hydroxy-7-((trifluoromethyl)sulfonyl)-2,3-dihydro-1H-inden-4-yl)oxonio)-5-fluoropyridine 1-oxide] | – | – | – | – |
